Source: patent publication EP4635500A1, “THERAPEUTIC AGENT FOR BACTERIAL INFECTION” (Sumitomo Pharma Co., Ltd., priority 2022, dated 2024)

Test system: 53 CRE and CPE strains
Experiment: MICrange, MIC50, MIC80, MIC90 for 53 bacterial isolates (Example 5, Table 5)
Type: cell-based
Conditions: 53 bacterial isolates

CC(C)(O/N=C(\C(=O)N[C@@H]1C(=O)N2C(C(=O)[O-])=C(C[n+]3ccccc3)CS[C@H]12)c1csc(N)n1)C(=O)O [CAZ, ceftazidime]
> 32 µg/mL: MIC50 (read-out: MIC50) | MIC80 (read-out: MIC80) | MIC90 (read-out: MIC90)
